Reference: patent US20020065309A1, “Novel Bicyclic and tricyclic pyrrolidine derivatives as GnRH antagonists” (priority 1999, published 2002)

Biological target: T1, human GnRH receptor (Homo sapiens, UniProt P30968)
T1 construct: expressed in transfected cells; host or cells: COS-1 cells infected with recombinant adenovirus; membrane preparation
T1 sequence (P30968 1-328): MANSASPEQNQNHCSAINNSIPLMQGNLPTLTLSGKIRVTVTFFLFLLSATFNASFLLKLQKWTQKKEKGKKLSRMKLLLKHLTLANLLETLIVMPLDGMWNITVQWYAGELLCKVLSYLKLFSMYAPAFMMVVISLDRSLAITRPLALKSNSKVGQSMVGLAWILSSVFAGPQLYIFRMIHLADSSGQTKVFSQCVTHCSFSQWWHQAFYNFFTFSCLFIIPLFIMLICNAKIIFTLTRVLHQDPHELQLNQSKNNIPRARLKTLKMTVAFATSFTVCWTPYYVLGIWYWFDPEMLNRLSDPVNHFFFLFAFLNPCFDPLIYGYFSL
Assay: GnRH radioligand binding assay
Settings: 125I-LHRH-D-Trp6 radioligand; COS-1 cell membranes containing human GnRH receptors; 2 h at 4 C
Protocol: COS-1 cells infected with a recombinant adenovirus directing the expression of the human GnRH receptor were harvested 48 hours after virus infection using cell dissociation buffer from Gibco-BRL and pelleted by centrifugation (5 min., 1100 rpm in RC3B, […]). The pellet was suspended in 20 ml ice cold binding buffer (25 mM Tris HCl, pH 7.4, 0.1% sodium azide, 0.1% BSA) and homogenized using polytron (Tempest Virtishear, Virtis).
The homogenate was centrifuged for 12 min. at 14,500 rpm in a RC5B and the supernatant discarded. The pellet was re-homogenized in 20 ml of binding buffer and centrifuged. The final pellet was resuspended in a small volume of binding buffer such that the final protein concentration was approximately 1.5 mg/ml (according to Pierce-BCA Protein kit). Aliquots of membrane preparation could then be stored frozen at −70 C without significant loss of binding activity for future use.
Samples were diluted in binding buffer (25 mM Tris pH 7.5, 10 MM MgCl2, 0.01% NaN3, 0.1% BSA) for the assay. The radioligand used was ^125I-LHRH-D-TrP6, approximately 50-70,000 counts/25 μl Non-specific binding was determined using LHRH-D-TrP6 at a final concentration of 1 µM. Addition of GnRH membranes to the assay was optimized to give a signal-to-noise ratio of 10:1.
Twenty-five μl sample (4× final concentration), 50 μl membranes and 25 μl radioligand were incubated in a V-bottom 96-well plate with shaking for 2 h at 4 C. The incubated mixture was then filtered onto a Whatman GF/B membrane pre-treated with 0.1% poly(ethylene imine) using a Packard Cell Harvester. The filter was dried for approximately 10 min. at 37 C. Forty μl Microscint 20 was added and the radioactivity remaining on the filter was counted using a Topcount γ-counter.
Binding inhibition was calculated from the measured values using a concentration series of each test compound in the conventional manner.

| Structure (SMILES) | IC50 [nM] |
| --- | --- |
| COc1ccc(CN2C[C@@H]3C[C@@H](c4ccc(OC)c5ccccc45)N4C(=O)N(CCN5CCOCC5)C(=O)[C@@]34C2)cc1O (relative stereo) [AF21477] | ~612 |
| COc1ccc(CN2C[C@@H]3C[C@@H](c4ccc(N(C)C)c5ccccc45)N4C(=O)N(CCN5CCOCC5)C(=O)[C@@]34C2)cc1O (relative stereo) [AF21276] | 35 ± 6 |
| CCOc1cc(CN2C[C@@H]3C[C@@H](c4ccc(N(C)C)c5ccccc45)N4C(=O)N(CCN5CCOCC5)C(=O)[C@@]34C2)ccc1O (relative stereo) [AF20660] | 800 ± 110 |
| COc1cc(Br)c(CN2C[C@@H]3C[C@@H](c4ccc(N(C)C)c5ccccc45)N4C(=O)N(CCN5CCOCC5)C(=O)[C@@]34C2)cc1O (relative stereo) [AF21813] | ~80 |
| COc1cc(CN2C[C@@H]3C[C@@H](c4ccc(N(C)C)c5ccccc45)N4C(=O)N(CCN5CCOCC5)C(=O)[C@@]34C2)c(Br)c(Br)c1O (relative stereo) [AF21278] | 280 ± 170 |
| COc1ccc(CN2C[C@@H]3C[C@@H](c4ccc(N(C)C)cc4)N4C(=O)N(CCN5CCOCC5)C(=O)[C@@]34C2)cc1O (relative stereo) [AF21479] | ~160 |

The next lines start with the values.

| IC50 [nM] | Structure (SMILES) |
| --- | --- |
| ~1500 | COc1ccc(CN2C[C@@H]3C[C@@H](c4ccc(N(C)C)c5ccccc45)N4C(=O)N(CCN5CCNCC5)C(=O)[C@@]34C2)cc1O (relative stereo) [AF22352] |
| ~321 | COc1ccc(CN2C[C@H]3C[C@H](c4ccc(N)c5ccccc45)N4C(=O)N(CCN5CCOCC5)C(=O)[C@]34C2)cc1O (relative stereo) [Compound 17, (trans)-5-[4-amino-1-naphthyl]-8-(3-hydroxy-4-methoxybenzyl)-2-(2-morpholin-4-ylethyl)hexahydro-1H-pyrrolo[3′,4′:2,3]pyrrolo[1,2-c]imidazole-1,3(2H)-dione] |
| ~21 | COc1ccc(CN2C[C@H]3C[C@H](c4ccc(N(C)C)c5ccccc45)N4C(=O)N(CCN5CCOCC5)C(=O)[C@]34C2)cc1NC(C)=O (relative stereo) [Compound 36, N-{5-[((trans)-5-[4-(dimethylamino)-1-naphthyl]-2-(2-morpholin-4-ylethyl)-1,3-dioxohexahydro-1H-pyrrolo[3′,4′:2,3]pyrrolo[1,2-c]imidazol-8(9H)-yl)methyl]-2-methoxyphenyl}acetamide] |
| ~1500 | COc1ccc(CN2C[C@H]3C[C@H](c4ccnc5ccccc45)N4C(=O)N(CCN5CCOCC5)C(=O)[C@]34C2)cc1O (relative stereo) [Compound 73, (trans)-8-(3-hydroxy-4-methoxybenzyl)-2-(2-morpholin-4-ylethyl)-5-quinolin-4-ylhexahydro-1H-pyrrolo [3′, 4′:2,3]pyrrolo[1,2-c]imidazole-1,3(2H)-dione] |
| ~385 | COc1ccc(CN2C[C@@H]3C[C@@H](c4ccc(N(C)C)c5ccccc45)N4C(=O)N(CCc5ccncc5)C(=O)[C@@]34C2)cc1O (relative stereo) [AF22053] |
| ~270 | O=C1N(CCN2CCOCC2)C(=O)[C@]23CNC[C@H]2C[C@H](c2cnc4ccccc4c2)N13 (relative stereo) [Compound 76, (trans)-2-(2-morpholin-4-ylethyl)-5-quinolin-3-ylhexahydro-1H-pyrrolo [3′,4′:2,3] pyrrolo [1,2-c]imidazole-1,3(2H)-dione] |
